Experiment: Solubility of the isolated salt in water (remark in the preparation examples)
Type: physicochemical
Details: hydrochloride / dihydrochloride salt

Row | solubility in water | SMILES
1 | soluble in water | COc1ccccc1N1CCN(CCCCCCNc2cnn(C)c(=O)c2Cl)CC1 [2-Methyl-4-chloro-5-((6-(4-(2-methoxyphenyl)-1-piperazinyl)hexyl)amino)-3(2H)-pyridazinone]
2 | readily soluble in water | Cc1cccc(C)c1N1CCN(CCNc2cnn(C)c(=O)c2Cl)CC1 [2-methyl-4-chloro-5-((2-(4-(2,6-dimethylphenyl)-1-piperazinyl)ethyl)amino)-3(2H)-pyridazinone]
3 | readily soluble in water | Cc1cccc(C)c1N1CCN(CCNc2c(Cl)cnn(C)c2=O)CC1 [2-methyl-5-chloro-4-((2-(4-(2,6-dimethylphenyl)-1-piperazinyl)ethyl)amino)-3(2H)-pyridazinone]
4 | soluble in water | COc1ccccc1N1CCN(CCCCCCNc2c(Cl)cnn(C)c2=O)CC1 [2-methyl-5-chloro-4-((6-(4-(2-methoxyphenyl)-1-piperazinyl)hexyl)amino)-3(2H)-pyridazinone]

Reference: US5034391A, “Piperazinylalkyl-3(2H)-pyridazinones and the use thereof as agents lowering blood pressure” (CL Pharma Aktiengesellschaft, priority 1988, dated 1991)
